Assay results: US8557816B2, “Aurora kinase modulators and method of use” (Amgen Inc., priority 2007, dated 2013)
Like-named read-outs stand apart in the source and are kept apart here.

Columns and labels:
[1] = molecular target: T1, AuroraB (Homo sapiens, UniProt Q96GD4); assay: AuroraB Homogeneous Time Resolved Fluorescent (HTRF) kinase assay; assay type: biochemical
T1 construct: 20 μL of AuroraB FL H is for a final volume of 41 μL; His
Experimental: AuroraB-Homogeneous Time Resolved Fluorescent (HTRF) Kinase Assay:
The AuroraB HTRF assay begins with AuroraB in the presence of ATP phosphorylating the biotinylated peptide Histone H3. The reaction incubates for about 90 min. the reaction is quenched by addition of detection reagents, which stop the reaction by diluting out the enzyme and chelating the metals due to the presence of EDTA. After addition, the assay is incubated for about 60 min to allow detection reagents to equilibrate.
The AuroraB HTRF assay comprises 1 μL of compound in 100% DMSO, 20 μL of ATP and biotinylated Histone H3, and 20 μL of AuroraB FL H is for a final volume of 41 μL. The final concentration of Histone H3 is 0.1 μM. […] Buffer conditions are as follows: 50 mM HEPES pH 7.5, 5 mM NaCl, 0.5 mM MgCl, 0.5 mM MnCl, 2 mM DTT, 0.05% BSA.
(§1) The assay is quenched and stopped with 160 μL of detection reagent. Detection reagents are as follows: Buffer made of 50 mM Tris, pH 7.5, 100 mM NaCl, 3 mM EDTA, 0.05% BSA, 0.1% Tween20. Added to this buffer prior to reading is Steptavidin allophycocyanin (SA-APC) at a final conc in the assay of 0.001 mg/mL, and europilated anti-phosphoHistoneH3 Ab (Eu-anti-HisH3) at a final conc of 0.064 nM.
The assay plate is read in either a Discovery or a RubyStar. The eu-anti-HisH3 is excited at 320 nm and emits at 615 nm to excite the SA-APC which in turn emits at 655 nm.

[2] = molecular target: T2, AuroraA-TPX2 (Homo sapiens, UniProt O14965); assay: AuroraA-TPX2 Homogeneous Time Resolved Fluorescent (HTRF) kinase assay; assay type: biochemical; conditions: average; read-out: AurA_IC50_IP (uM Avg)
T2 construct: 20 μL of AuroraA-TPX2 KD GST for a final volume of about 41 μL; GST
T2 sequence (O14965 133-383 limits assumed): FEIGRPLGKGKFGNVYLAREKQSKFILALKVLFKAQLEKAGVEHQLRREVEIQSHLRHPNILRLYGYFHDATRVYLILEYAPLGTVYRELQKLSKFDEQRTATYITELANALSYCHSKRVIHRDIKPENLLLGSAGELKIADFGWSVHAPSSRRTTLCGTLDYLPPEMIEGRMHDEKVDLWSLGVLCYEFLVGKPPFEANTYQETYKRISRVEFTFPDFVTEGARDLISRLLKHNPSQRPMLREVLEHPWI
T2 sequence (Q9ULW0 1-43 partner limits assumed): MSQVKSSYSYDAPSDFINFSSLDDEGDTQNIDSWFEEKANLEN
Experimental: AuroraA-TPX2-Homogeneous Time Resolved Fluorescent (HTRF) Kinase Assay:
The Aurora-A HTRF assay begins with Aurora-A in the presence of ATP phosphorylating the biotinylated peptide PLK. The reaction incubates for about 120 min. Detection reagents are added to quench the reaction. These agents stop the reaction by diluting out the enzyme and chelating the metals due to the presence of EDTA. After addition, the assay is incubated overnight to allow the detection reagents to equilibrate.
The AuroraA HTRF assay comprises 1 μL of compound in 100% DMSO, 20 μL of ATP and biotinylated PLK, and 20 μL of AuroraA-TPX2 KD GST for a final volume of about 41 μL. The final concentration of PLK is about 1 μM. […] Buffer conditions are as follows: 60 mM HEPES pH 7.5, 25 mM NaCl, 10 mM MgCl, 2 mM DTT, 0.05% BSA.
as §1, with “0.0005” for “0.001”, “anti-phosphoPLK” for “anti-phosphoHistoneH3”, “(Eu-anti-PLK)” for “(Eu-anti-HisH3)”, “0.02” for “0.064”
The assay plate is read in either a Discovery or a RubyStar. The eu-anti-PLK is excited at 320 nm and emits at 615 nm to excite the SA-APC which in turn emits at 655 nm.

[3] = average, read-out: AurB_IC50_IP (uM Avg)

T1 sequence (Q96GD4 whole entry): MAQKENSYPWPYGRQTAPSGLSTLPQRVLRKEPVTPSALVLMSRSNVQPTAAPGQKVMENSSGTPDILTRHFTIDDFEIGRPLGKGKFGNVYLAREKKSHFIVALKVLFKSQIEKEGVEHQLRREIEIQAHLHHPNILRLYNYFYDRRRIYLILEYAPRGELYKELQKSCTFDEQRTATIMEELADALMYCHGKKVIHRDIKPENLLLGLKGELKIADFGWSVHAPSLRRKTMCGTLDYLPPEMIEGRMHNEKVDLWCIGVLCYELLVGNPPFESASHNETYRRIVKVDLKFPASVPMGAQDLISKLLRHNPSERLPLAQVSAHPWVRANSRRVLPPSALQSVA

SMILES: COc1cnc2c(Oc3ccc(Nc4nnc(-c5cccc(C#N)c5)c5ccccc45)cc3)ccnc2c1 [Example 29, 3-(4-(4-(7-methoxy-1,5-naphthyridin-4-yloxy)phenylamino)phthalazin-1-yl)benzonitrile]
- IC50 [1, 3]: 0.018 µM
- IC50 [2]: 0.139 µM

SMILES: COc1cnc2c(Oc3ccc(Nc4nnc(-c5nccn5C)c5ccccc45)cc3)ccnc2c1 [Example 30, N-(4-(7-methoxy-1,5-naphthyridin-4-yloxy)phenyl)-4-(1-methyl-1H-imidazol-2-yl)phthalazin-1-amine]
- IC50 [2]: 1.39 µM

SMILES: COc1cnc2c(Oc3ccc(Nc4nnc(C#CC(C)(C)C)c5ccccc45)cc3)ccnc2c1 [Example 31, 4-(3,3-dimethylbut-1-ynyl)-N-(4-(7-methoxy-1,5-naphthyridin-4-yloxy)phenyl)phthalazin-1-amine]
- IC50 [1, 3]: 0.008 µM
- IC50 [2]: 0.033 µM

SMILES: COc1cnc2c(Oc3ccc(Nc4nnc(N5CCCCCC5)c5ccccc45)cc3)ccnc2c1 [Example 32, 4-(azepan-1-yl)-N-(4-(7-methoxy-1,5-naphthyridin-4-yloxy)phenyl)phthalazin-1-amine]
- IC50 [1, 3]: 0.009 µM
- IC50 [2]: 0.016 µM

SMILES: Clc1ccc(-c2nnc(Nc3ccc(Sc4ccnc5cccnc45)cc3)c3ccccc23)cc1 [Example 33, N-(4-(1,5-naphthyridin-4-ylthio)phenyl)-4-(4-chlorophenyl)phthalazin-1-amine]
- IC50 [1, 3]: 0.003 µM
- IC50 [2]: 0.022 µM

SMILES: COc1cnc2c(Nc3cnc(Nc4nnc(-c5ccccc5)c5ccccc45)nc3)ccnc2c1 [Example 36, N^5-(7-Methoxy-1,5-naphthyridin-4-yl)-N^2-(4-phenylphthalazin-1-yl)pyrimidine-2,5-diamine]
- IC50 [1, 3]: 0.004 µM
- IC50 [2]: 0.038 µM

SMILES: COc1ccc(-c2nnc(Nc3ccc(Oc4ccnc5cc(OC)cnc45)cc3)c3ccccc23)cc1 [Example 37, N-(4-(7-methoxy-1,5-naphthyridin-4-yloxy)phenyl)-4-(4-methoxyphenyl)phthalazin-1-amine]
- IC50 [1, 3]: 0.004 µM
- IC50 [2]: 0.02 µM

SMILES: COc1cnc2c(Oc3ccc(Nc4nnc(-c5ccc(C(C)(C)C)cc5)c5ccccc45)cc3)ccnc2c1 [Example 38, 4-(4-tert-butylphenyl)-N-(4-(7-methoxy-1,5-naphthyridin-4-yloxy)phenyl)phthalazin-1-amine]
- IC50 [1, 3]: 0.017 µM
- IC50 [2]: 0.023 µM

SMILES: COc1ccc2c(Oc3ccc(Nc4nnc(-c5ccc(C(F)(F)F)cc5)c5ccccc45)cc3)c(F)cnc2c1 [Example 39, N-(4-(3-fluoro-7-methoxyquinolin-4-yloxy)phenyl)-4-(4-(trifluoromethyl)phenyl) phthalazin-1-amine]
- IC50 [1, 3]: 1 µM

SMILES: COc1cnc2c(Nc3ccc(Nc4nnc(-c5ccccc5)c5ccccc45)cc3)ccnc2c1 [Example 40, N^1-(7-methoxy-1,5-naphthyridin-4-yl)-N^4-(4-phenylphthalazin-1-yl)benzene-1,4-diamine]
- IC50 [1, 3]: 0.007 µM
- IC50 [2]: 0.044 µM

SMILES: COc1cnc2c(Oc3ccc(Nc4nnc(-c5ccccc5)c5ccccc45)cn3)ccnc2c1 [Example 41, N-(6-(7-methoxy-1,5-naphthyridin-4-yloxy)pyridin-3-yl)-4-phenylphthalazin-1-amine]
- IC50 [1, 3]: 0.009 µM
- IC50 [2]: 0.079 µM

SMILES: c1ccc(-c2nnc(Nc3ccc(Oc4ccnc5cc(N6CCOCC6)ccc45)cc3)c3ccccc23)cc1 [Example 42, N-(4-(7-Morpholinoquinolin-4-yloxy)phenyl)-4-phenylphthalazin-1-amine]
- IC50 [1, 3]: 0.002 µM
- IC50 [2]: 0.011 µM

SMILES: CC(=O)Nc1ccc2nccc(Oc3ccc(Nc4nnc(-c5ccccc5)c5ccccc45)cc3)c2c1 [Example 43, N-(4-(4-(4-Phenylphthalazin-1-ylamino)phenoxy)quinolin-6-yl)acetamide]
- IC50 [1, 3]: 0.008 µM
- IC50 [2]: 0.112 µM

SMILES: N#Cc1ccc2c(Oc3ccc(Nc4nnc(-c5ccccc5)c5ccccc45)cn3)ccnc2c1 [compound 174, 4-(5-(4-phenylphthalazin-1-ylamino)pyridin-2-yloxy)quinoline-7-carbonitrile]
- IC50 [1, 3]: 5 µM

SMILES: COc1cnc2c(Oc3ccc(Nc4nnc(-c5cccc(N6CCCCC6)c5)c5ccccc45)cc3)ccnc2c1 [compound 197, N-(4-((7-(methyloxy)-1,5-naphthyridin-4-yl)oxy)phenyl)-4-(3-(1-piperidinyl)phenyl)-1-phthalazinamine]
- IC50 [2]: 0.034 µM

SMILES: Cc1ccc(-c2nnc(Nc3ccc(Oc4ccnc5cc(-c6cncn6C)sc45)cc3)c3ccccc23)nc1 [compound 255, N-(4-((2-(1-methyl-1H-imidazol-5-yl)thieno[3,2-b]pyridin-7-yl)oxy)phenyl)-4-(5-methyl-2-pyridinyl)-1-phthalazinamine]
- IC50 [2]: 0.005 µM

SMILES: Cn1cncc1-c1cc2nccc(Oc3ccc(Nc4nnc(-c5ccc(Cl)cc5)c5ccccc45)cn3)c2s1 [compound 267, 4-(4-chlorophenyl)-N-(6-((2-(1-methyl-1H-imidazol-5-yl)thieno[3,2-b]pyridin-7-yl)oxy)-3-pyridinyl)-1-phthalazinamine]
- IC50 [2]: 0.011 µM

SMILES: COc1cc2nncc(Oc3ccc(Nc4nnc(-c5ccc(Cl)cc5)c5ccccc45)cc3)c2cc1OC [compound 282, N-(4-((6,7-bis(methyloxy)-4-cinnolinyl)oxy)phenyl)-4-(4-chlorophenyl)-1-phthalazinamine]
- IC50 [1, 3]: 0.189 µM

SMILES: Fc1cc(F)c2c(Sc3ccc(Nc4nnc(-c5ccccc5)c5ccccc45)cc3)ccnc2c1 [compound 295, N-(4-((5,7-difluoro-4-quinolinyl)thio)phenyl)-4-phenyl-1-phthalazinamine]
- IC50 ([1]; given as class symbol, read-out: AurB_IC50_IP (class symbol)): < 0.1 µM

SMILES: Cc1noc(-c2cc3nccc(Sc4ccc(Nc5nnc(-c6ccccc6)c6ccccc56)cc4)c3s2)n1 [compound 303, N-(4-((2-(3-methyl-1,2,4-oxadiazol-5-yl)thieno[3,2-b]pyridin-7-yl)thio)phenyl)-4-phenyl-1-phthalazinamine]
- IC50 [1, 3]: 0.07 µM

SMILES: Fc1cc(F)c2c(Sc3ccc(Nc4nnc(-c5ccccc5)c5ccccc45)cc3)ccnc2c1 [compound 311, N-(4-((5,7-difluoro-4-quinolinyl)thio)phenyl)-4-phenyl-1-phthalazinamine]
- IC50 [1, 3]: 0.093 µM

SMILES: Cc1noc(-c2cc3nccc(Sc4ccc(Nc5nnc(-c6ccccc6)c6ccccc56)cc4)c3s2)n1 [compound 318, N-(4-((2-(3-methyl-1,2,4-oxadiazol-5-yl)thieno[3,2-b]pyridin-7-yl)thio)phenyl)-4-phenyl-1-phthalazinamine]
- IC50 [1, 3]: 0.07 µM

SMILES: Clc1ccc(-c2nnc(Nc3ccc(Sc4ccnc5ccccc45)cc3)c3ccccc23)cc1 [compound 333, 4-(4-chlorophenyl)-N-(4-(quinolin-4-ylthio)phenyl)phthalazin-1-amine]
- IC50 [1, 3]: 0.036 µM

SMILES: Clc1ccc(-c2nnc(Nc3ccc(CN4CCOc5ccccc54)cc3)c3ccccc23)cc1 [compound 349, 4-(4-chlorophenyl)-N-(4-((2,3-dihydrobenzo[b][1,4]oxazin-4-yl)methyl)phenyl)phthalazin-1-amine]
- IC50 [1, 3]: 0.045 µM

SMILES: CNC(=O)c1cc(Sc2ccc(Nc3nnc(-c4ccc(Cl)cc4)c4ccccc34)cc2)ccn1 [compound 360, 4-(4-(4-(4-chlorophenyl)phthalazin-1-ylamino)phenylthio)-N-methylpicolinamide]
- IC50 [1, 3]: 0.345 µM

SMILES: Clc1ccc(-c2nnc(Nc3ccc(Oc4cnnc5ccc(Br)cc45)cc3)c3ccccc23)cc1 [compound 369, N-(4-(6-bromocinnolin-4-yloxy)phenyl)-4-(4-chlorophenyl)phthalazin-1-amine]
- IC50 [1, 3]: 3 µM
